Source: PMC7531004, “Discovery of gramicidin A analogues with altered activities by multidimensional screening of a one-bead-one-compound library” (Nature Communications, 2020)
Where “and” joins values, the source holds several entries; their conditions need not be identical. Equal values may be shown once. Read-outs that look alike come from different tables or passages of the source. Where a SMILES comes first, the peptide text is derived from it. [ ]: non-standard residue; d: D form. The star is where a group is joined. NHCH2CH2OH = OCCN*; For = O=C*

Key:
[1] = tested on: Enterococcus faecalis JCM5803; conditions: for antibacterial activity/MIC: E. faecalis; for Antibacterial activity MIC: JCM5803
How it was run: (§1)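 Growth inhibition was scored after 18–24 h at 37 °C in cation-adjusted Mueller Hinton broth, with laked horse blood (5%) included for streptococcal strains. Inocula were standardized by OD 625 and diluted to about 5 × 10^4 CFU/well.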

[2] = tested on: Listeria monocytogenes 10403S; conditions: L. monocytogenes
How it was run: as §1

[3] = tested on: Streptococcus agalactiae JCM5671; conditions: for Antibacterial activity MIC: JCM5671; for antibacterial activity/MIC: S. agalactiae
How it was run: as §1

[4] = tested on: Streptococcus pneumoniae NBRC 102642; conditions: for antibacterial activity/MIC: S. pneumoniae
How it was run: as §1

[5] = tested on: Streptococcus pyogenes SSI-9; conditions: for antibacterial activity/MIC: S. pyogenes
How it was run: as §1

[6] = tested on: MSSA1 (methicillin-susceptible Staphylococcus aureus); format: cell-based
[7] = Membrane disruption assay of purified peptides (carboxyfluorescein leakage); format: biochemical; parameters: key: % lysis; Triton X-100 = 100%, DMSO = 0%; conditions: three replicate lines
[8] = H+/Na+ transport assay of purified peptides; conditions: for Supplementary Figure 5 dose-response value (H+/Na+ transport): three replicate lines
[9] = IC50, mammalian cytotoxicity assay
[10] = read-out: EC50, H+/Na+ transport assay, 1st experiment
[11] = read-out: EC50, H+/Na+ transport assay, 2nd experiment
[12] = read-out: EC50, H+/Na+ transport assay, 3rd experiment
[13] = read-out: H+/Na+ transport activity EC50, EYPC/EYPG (19:1) LUVs
[14] = read-out: H+/Na+ transport activity/EC50, mean ± SD of three independent experiments

| Compound | IC50 [9] [nM] | antibacterial activity/MIC [1] [µg/mL] | Antibacterial activity MIC [1] [µM] | antibacterial activity/MIC [2] [µg/mL] | Antibacterial activity MIC [3] [µM] | antibacterial activity/MIC [3] [µg/mL] | antibacterial activity/MIC [4] [µg/mL] | antibacterial activity/MIC [5] [µg/mL] | antibacterial activity/MIC [6] [µg/mL] | Supplementary Figure 1 dose-response value ([7]; concentration 0.000512 nM) | Supplementary Figure 1 dose-response value ([7]; concentration 0.00256 nM) | Supplementary Figure 1 dose-response value ([7]; concentration 0.0128 nM) | Supplementary Figure 1 dose-response value ([7]; concentration 0.064 nM) | Supplementary Figure 1 dose-response value ([7]; concentration 0.32 nM) | Supplementary Figure 1 dose-response value ([7]; concentration 1.6 nM) | Supplementary Figure 1 dose-response value ([7]; concentration 8 nM) | Supplementary Figure 1 dose-response value ([7]; concentration 40 nM) | Supplementary Figure 1 dose-response value ([7]; concentration 200 nM) | Supplementary Figure 1 dose-response value ([7]; concentration 1000 nM) | Supplementary Figure 1 dose-response value ([7]; concentration 5000 nM) | further results |
| --- | --- | --- | --- | --- | --- | --- | --- | --- | --- | --- | --- | --- | --- | --- | --- | --- | --- | --- | --- | --- | --- |
| CC(C)C[C@@H](NC(=O)[C@H](C)NC(=O)CNC(=O)[C@@H](NC=O)C(C)C)C(=O)N[C@@H](C)C(=O)N[C@@H](C(=O)N[C@H](C(=O)N[C@@H](C(=O)N[C@@H](Cc1c[nH]c2ccccc12)C(=O)N[C@H](CC(C)C)C(=O)N[C@@H](Cc1c[nH]c2ccccc12)C(=O)N[C@H](CC(C)C)C(=O)N[C@@H](Cc1c[nH]c2ccccc12)C(=O)N[C@@H](C(=O)N[C@@H](Cc1c[nH]c2ccccc12)C(=O)NCCO)C(C)C)[C@H](C)O)C(C)C)C(C)C [B12] (For-VGA[dL]A[dV]V[dT]W[dL]W[dL]W[dV]W-NHCH2CH2OH) | 340 | 2 | 1.1 | 4 | 8.6 | 16 | 0.016 | 0.13 | 4 | 14.3151 and 14.218 and 7.531 | 2.34 and -6.416 and 3.105 | 5.88 and 8.131 and 3.94 | 3.705 and 7.973 and 3.229 | 3.808 and 6.955 and 6.51 | 8.996 and 0.3041 and 5.919 | 7.9647 and 15.5867 and 17.3879 | 5.306 and 8.903 and 13.6255 | 28.0368 and 20.6509 and 3.758 | 25.4415 and 27.5334 and 28.0661 | 41.4626 and 58.8643 and 47.4572 | IC50 (Cytotoxicity IC50): 390 nM; IC50 (cytotoxicity against P388 cells/IC50): 387 ± 90.9 nM; Supplementary Figure 5 dose-response value (H+/Na+ transport) ([8]; concentration 0.000512 nM): 2.818 and 0.0271 and -0.589; Supplementary Figure 5 dose-response value (H+/Na+ transport) ([8]; concentration 0.00256 nM): 3.476 and 5.315 and 5.077; Supplementary Figure 5 dose-response value (H+/Na+ transport) ([8]; concentration 0.0128 nM): 4.761 and 4.753 and 4.729; Supplementary Figure 5 dose-response value (H+/Na+ transport) ([8]; concentration 0.064 nM): 8.321 and 5.0339 and 7.369; Supplementary Figure 5 dose-response value (H+/Na+ transport) ([8]; concentration 0.32 nM): 16.8579 and 20.7391 and 16.934; Supplementary Figure 5 dose-response value (H+/Na+ transport) ([8]; concentration 1.6 nM): 35.2545 and 35.7349 and 38.3822; Supplementary Figure 5 dose-response value (H+/Na+ transport) ([8]; concentration 8 nM): 63.7974 and 60.2094 and 62.8038; Supplementary Figure 5 dose-response value (H+/Na+ transport) ([8]; concentration 40 nM): 71.4784 and 67.4712 and 69.6703; Supplementary Figure 5 dose-response value (H+/Na+ transport) ([8]; concentration 200 nM): 72.1513 and 73.1412 and 71.1696; Supplementary Figure 5 dose-response value (H+/Na+ transport) ([8]; concentration 1000 nM): 74.8337 and 73.0658 and 70.6415; Supplementary Figure 5 dose-response value (H+/Na+ transport) ([8]; concentration 5000 nM): 78.5724 and 78.4083 and 76.7501; EC50 [8, 10]: 1.66 nM; EC50 [8, 11]: 0.838 nM; EC50 [8, 12]: 2.98 nM; EC50 [8, 13]: 1.8 nM; EC50 [8, 14]: 1.83 ± 1.08 nM |
| CC(C)C[C@@H](NC(=O)[C@H](C)NC(=O)CNC(=O)[C@@H](NC=O)C(C)C)C(=O)N[C@@H](C)C(=O)N[C@@H](C(=O)N[C@H](C(=O)N[C@@H](C(=O)N[C@@H](Cc1c[nH]c2ccccc12)C(=O)N[C@H](CC(C)C)C(=O)N[C@@H](Cc1c[nH]c2ccccc12)C(=O)N[C@H](CC(C)C)C(=O)N[C@@H](Cc1c[nH]c2ccccc12)C(=O)N[C@H](CC(C)C)C(=O)N[C@@H](Cc1c[nH]c2ccccc12)C(=O)NCCO)[C@H](C)O)C(C)C)C(C)C [B13] (For-VGA[dL]A[dV]V[dT]W[dL]W[dL]W[dL]W-NHCH2CH2OH) | > 1000 | 4 | 2.1 | 2 | 4.2 | 8 | 0.063 | 1 | 8 | 12.6222 and 8.681 and 14.1878 | 5.0387 and -8.856 and 0.4118 | 17.1111 and 10.8226 and 6.743 | 2.158 and 0.4656 and 8.156 | 0.4983 and 9.035 and 4.354 | 8.628 and -5.518 and 5.634 | 16.7483 and 16.868 and 17.3839 | 8.5256 and 14.4302 and 19.7817 | 29.195 and 23.7339 and 11.0358 | 32.784 and 37.4398 and 33.6736 | 66.9777 and 54.6664 and 50.7322 | Antibacterial activity MIC ([4]; NBRC 102642): 0.033 µM; Antibacterial activity MIC ([5]; SSI-9): 0.53 µM; Supplementary Figure 5 dose-response value (H+/Na+ transport) ([8]; concentration 0.000512 nM): 3.017 and 1.952 and 2.608; Supplementary Figure 5 dose-response value (H+/Na+ transport) ([8]; concentration 0.00256 nM): 3.102 and 3.766 and 3.197; Supplementary Figure 5 dose-response value (H+/Na+ transport) ([8]; concentration 0.0128 nM): 2.802 and 3.448 and 5.087; Supplementary Figure 5 dose-response value (H+/Na+ transport) ([8]; concentration 0.064 nM): 7.573 and 8.7038 and 6.571; Supplementary Figure 5 dose-response value (H+/Na+ transport) ([8]; concentration 0.32 nM): 17.1662 and 17.5754 and 16.2478; Supplementary Figure 5 dose-response value (H+/Na+ transport) ([8]; concentration 1.6 nM): 34.5009 and 38.0687 and 36.068; Supplementary Figure 5 dose-response value (H+/Na+ transport) ([8]; concentration 8 nM): 62.5081 and 62.2715 and 60.6584; Supplementary Figure 5 dose-response value (H+/Na+ transport) ([8]; concentration 40 nM): 69.7421 and 65.8817 and 68.9295; Supplementary Figure 5 dose-response value (H+/Na+ transport) ([8]; concentration 200 nM): 70.9489 and 69.9169 and 66.3002; Supplementary Figure 5 dose-response value (H+/Na+ transport) ([8]; concentration 1000 nM): 70.4102 and 68.4527 and 68.0392; Supplementary Figure 5 dose-response value (H+/Na+ transport) ([8]; concentration 5000 nM): 77.0905 and 71.4732 and 77.0208; EC50 [8, 10]: 1.54 nM; EC50 [8, 11]: 1.6 nM; EC50 [8, 12]: 1.51 nM; EC50 [8, 13]: 1.6 nM; EC50 [8, 14]: 1.55 ± 0.04 nM |
